Data as given in patent US10717733B2, “Haloallylamine indole and azaindole derivative inhibitors of lysyl oxidases and uses thereof” (PHARMAXIS LTD., priority 2016, dated 2020).
Structures can show the parent of a compound that is named as a salt.

Key:
Type in all cases: biochemical
[1] = target: Bovine LOX (Bos taurus (Bovine), UniProt P33072); test: LOX inhibition, peroxidase-coupled Amplex Red amine oxidase assay; details: 30 min preincubation at 37° C., putrescine substrate
Outline: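 Bovine LOX in 1.2 M urea, 50 mM sodium borate pH 8.2 with 1 μM mofegiline and 0.5 mM pargyline; putrescine at twice KM (e.g. 20 mM for LOX) with Amplex Red/HRP. Fluorescence (ex 565/em 590 nm) read kinetically over 30 min at 37–45 °C; IC50 from slopes.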

[2] = target: Human LOXL2 (Homo sapiens (Human), UniProt Q9Y4K0); test: LOXL2 inhibition, peroxidase-coupled Amplex Red amine oxidase assay; details: 30 min preincubation at 37° C., putrescine substrate
Outline: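 Enzyme in 1.2 M urea, 50 mM sodium borate pH 8.2 with 1 μM mofegiline and 0.5 mM pargyline, preincubated 30 min at 37° C with compound (11-point CRC). Putrescine at twice KM (10 mM for LOXL2) with Amplex Red/HRP; fluorescence (ex 565, em 590) read kinetically 30 min; IC50 from slopes.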

[3] = target: human recombinant SSAO/VAP-1 (Homo sapiens (Human), UniProt Q16853); test: Inhibition of human recombinant SSAO/VAP-1 amine oxidase activity; details: 30 min preincubation at 37° C., 600 μM benzylamine
Outline: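 Purified SSAO/VAP-1 (residues 34-763, expressed in CHO Lec 8 cells; 0.25 μg/mL) preincubated 30 min at 37° C with compound in 0.1 M sodium phosphate pH 7.4. Reaction mix of 600 μM benzylamine, 120 μM Amplex Red and 1.5 U/mL HRP added; fluorescence (ex 565/em 590 nm) read every 2.5 min for 30 min; IC50 from kinetic slopes over 4-11 point curves.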

[4] = target: Recombinant human MAO-B (Homo sapiens (Human), UniProt P27338); test: Inhibition of human recombinant MAO-B; details: benzylamine 100 μM
Outline: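 Recombinant human MAO-B used as enzyme source (0.06 mg/mL, stated concentration). Run as for the human SSAO/VAP-1 assay, except benzylamine substrate at 100 μM.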

Sequence of Recombinant human MAO-B (P27338 whole entry): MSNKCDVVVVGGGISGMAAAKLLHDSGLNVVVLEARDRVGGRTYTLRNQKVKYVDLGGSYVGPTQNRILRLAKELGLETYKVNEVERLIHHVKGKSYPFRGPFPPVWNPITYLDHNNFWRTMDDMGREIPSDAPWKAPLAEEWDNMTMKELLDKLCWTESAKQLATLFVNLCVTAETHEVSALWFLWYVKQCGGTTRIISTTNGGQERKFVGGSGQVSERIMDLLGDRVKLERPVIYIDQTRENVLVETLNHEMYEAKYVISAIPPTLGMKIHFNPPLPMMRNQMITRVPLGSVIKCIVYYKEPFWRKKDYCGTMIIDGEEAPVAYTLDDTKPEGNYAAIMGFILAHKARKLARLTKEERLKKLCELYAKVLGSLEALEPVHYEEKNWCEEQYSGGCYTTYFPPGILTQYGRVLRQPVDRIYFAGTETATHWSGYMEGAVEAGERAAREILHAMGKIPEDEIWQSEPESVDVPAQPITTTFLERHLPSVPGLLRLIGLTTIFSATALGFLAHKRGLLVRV
Sequence of Human LOXL2 (Q9Y4K0 26-774): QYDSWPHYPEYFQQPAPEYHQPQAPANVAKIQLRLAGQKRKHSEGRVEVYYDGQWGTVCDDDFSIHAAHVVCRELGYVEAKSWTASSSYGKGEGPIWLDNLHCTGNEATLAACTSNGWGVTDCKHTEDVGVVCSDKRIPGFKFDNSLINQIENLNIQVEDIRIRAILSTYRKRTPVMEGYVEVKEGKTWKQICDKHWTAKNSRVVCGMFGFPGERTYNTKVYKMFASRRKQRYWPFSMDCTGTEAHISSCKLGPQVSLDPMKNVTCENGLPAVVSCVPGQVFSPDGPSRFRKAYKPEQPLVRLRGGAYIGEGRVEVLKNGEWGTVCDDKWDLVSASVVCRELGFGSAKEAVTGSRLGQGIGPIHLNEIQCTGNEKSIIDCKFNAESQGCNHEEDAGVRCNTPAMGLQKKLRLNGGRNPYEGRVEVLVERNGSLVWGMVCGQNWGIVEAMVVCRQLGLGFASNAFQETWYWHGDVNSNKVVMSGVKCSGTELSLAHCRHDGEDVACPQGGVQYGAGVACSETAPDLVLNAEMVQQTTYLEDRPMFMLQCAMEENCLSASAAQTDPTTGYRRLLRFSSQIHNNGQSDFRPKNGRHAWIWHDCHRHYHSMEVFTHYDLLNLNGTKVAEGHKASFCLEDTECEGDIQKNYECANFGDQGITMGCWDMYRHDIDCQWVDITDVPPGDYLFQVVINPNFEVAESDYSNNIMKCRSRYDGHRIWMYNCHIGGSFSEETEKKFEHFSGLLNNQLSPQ
Sequence of Bovine LOX (P33072 170-418): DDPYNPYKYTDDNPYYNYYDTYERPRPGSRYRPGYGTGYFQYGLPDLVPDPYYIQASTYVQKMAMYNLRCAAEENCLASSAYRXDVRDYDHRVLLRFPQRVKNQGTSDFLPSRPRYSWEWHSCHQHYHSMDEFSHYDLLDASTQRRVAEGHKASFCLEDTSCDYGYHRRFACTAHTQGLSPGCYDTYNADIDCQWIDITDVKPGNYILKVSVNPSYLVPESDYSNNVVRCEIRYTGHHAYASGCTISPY
Sequence of human recombinant SSAO/VAP-1 (Q16853 34-763): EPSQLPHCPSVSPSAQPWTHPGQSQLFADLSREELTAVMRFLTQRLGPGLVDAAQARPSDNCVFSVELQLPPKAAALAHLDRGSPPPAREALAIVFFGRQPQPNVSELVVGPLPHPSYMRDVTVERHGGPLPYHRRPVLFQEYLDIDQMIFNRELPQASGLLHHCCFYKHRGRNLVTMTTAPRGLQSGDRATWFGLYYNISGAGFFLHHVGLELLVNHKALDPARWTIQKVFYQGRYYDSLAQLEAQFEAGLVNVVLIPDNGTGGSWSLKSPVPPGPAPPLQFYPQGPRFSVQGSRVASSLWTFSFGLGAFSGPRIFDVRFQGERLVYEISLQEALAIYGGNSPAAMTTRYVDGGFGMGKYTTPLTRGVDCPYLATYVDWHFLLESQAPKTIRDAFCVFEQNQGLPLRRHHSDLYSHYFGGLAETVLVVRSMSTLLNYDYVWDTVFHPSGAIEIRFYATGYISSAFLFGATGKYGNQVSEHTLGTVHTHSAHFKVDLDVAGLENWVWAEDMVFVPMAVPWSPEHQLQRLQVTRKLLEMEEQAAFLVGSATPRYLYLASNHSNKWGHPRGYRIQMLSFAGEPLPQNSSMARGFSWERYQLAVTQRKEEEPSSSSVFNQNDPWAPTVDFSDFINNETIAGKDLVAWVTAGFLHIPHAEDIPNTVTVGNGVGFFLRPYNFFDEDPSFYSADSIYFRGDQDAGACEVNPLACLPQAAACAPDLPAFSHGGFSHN

SMILES | IC50 [1] | IC50 [2] | IC50 [3] | IC50 [4]
CCOC(=O)c1ccc2c(c1)c(-c1cccc(S(C)(=O)=O)c1)c(C)n2C/C(F)=C/CN [Compound 17, (Z)-ethyl 1-(4-amino-2-fluorobut-2-en-1-yl)-2-methyl-3-(3-(methylsulfonyl)phenyl)-1H-indole-5-carboxylate] | > 300 nM | < 300 nM | > 3000 nM | > 3000 nM
Cc1c(-c2cccc(C(=O)O)c2)c2cc(S(=O)(=O)N(C)C)ccc2n1C/C(F)=C/CN [Compound 34, (Z)-3-(1-(4-amino-2-fluorobut-2-en-1-yl)-5-(N,N-dimethylsulfamoyl)-2-methyl-1H-indol-3-yl)benzoic acid] | > 300 nM | < 300 nM | > 3000 nM | > 3000 nM
CNC(=O)c1ccc2c(n1)c(-c1cccc(S(=O)(=O)N(C)C)c1)c(C)n2C/C(F)=C/CN [Compound 46, (Z)-1-(4-amino-2-fluorobut-2-en-1-yl)-3-(3-(N,N-dimethylsulfamoyl)phenyl)-N,2-dimethyl-1H-pyrrolo[3,2-b]pyridine-5-carboxamide] | > 300 nM | < 300 nM | > 3000 nM | > 3000 nM
Cc1c(-c2cncc(S(=O)(=O)N(C)C)c2)c2cc(C(=O)N(C)C)ccc2n1C/C(F)=C/CN [Compound 41, (Z)-1-(4-amino-2-fluorobut-2-en-1-yl)-3-(5-(N,N-dimethylsulfamoyl)pyridin-3-yl)-N,N,2-trimethyl-1H-indole-5-carboxamide] | > 300 nM | < 300 nM | > 3000 nM | > 3000 nM
Cc1ccc(S(=O)(=O)N(C)C)cc1-c1c(C)n(C/C(F)=C/CN)c2ccc(C(=O)O)cc12 [Compound 20, (Z)-1-(4-amino-2-fluorobut-2-en-1-yl)-3-(5-(N,N-dimethylsulfamoyl)-2-methylphenyl)-2-methyl-1H-indole-5-carboxylic acid] | > 300 nM | < 300 nM | > 3000 nM | > 3000 nM
Cc1c(-c2cccc(S(=O)(=O)N(C)C)c2)c2cc(S(=O)(=O)N(C)C)ccc2n1C/C(F)=C/CN [Compound 58, (Z)-1-(4-amino-2-fluorobut-2-en-1-yl)-3-(3-(N,N-dimethylsulfamoyl)phenyl)-N,N,2-trimethyl-1H-indole-5-sulfonamide] | > 300 nM | < 300 nM | > 3000 nM | > 3000 nM
Cc1c(-c2cncc(S(C)(=O)=O)c2)c2cc(Cl)ccc2n1C/C(F)=C/CN [Compound 65, (Z)-4-(5-chloro-2-methyl-3-(5-(methylsulfonyl)pyridin-3-yl)-1H-indol-1-yl)-3-fluorobut-2-en-1-amine] | > 300 nM | < 300 nM | > 3000 nM | > 3000 nM
Cc1c(-c2cccc(S(=O)(=O)N(C)C)c2)c2cnccc2n1C/C(F)=C/CN [Compound 26, (Z)-3-(1-(4-amino-2-fluorobut-2-en-1-yl)-2-methyl-1H-pyrrolo[3,2-c]pyridin-3-yl)-N,N-dimethylbenzenesulfonamide Dihydrochloride] | > 300 nM | < 300 nM | > 3000 nM | > 3000 nM
Cc1c(-c2cncc(S(=O)(=O)N(C)C)c2)c2cccc(Cl)c2n1C/C(F)=C/CN [Compound 74, (Z)-5-(1-(4-amino-2-fluorobut-2-en-1-yl)-7-chloro-2-methyl-1H-indol-3-yl)-N,N-dimethylpyridine-3-sulfonamide] | > 300 nM | < 300 nM | > 3000 nM | > 3000 nM
Cc1c(-c2cccc(S(=O)(=O)N(C)C)c2)c2ccncc2n1C/C(F)=C/CN [Compound 32, (Z)-3-(1-(4-amino-2-fluorobut-2-en-1-yl)-2-methyl-1H-pyrrolo[2,3-c]pyridin-3-yl)-N,N-dimethylbenzenesulfonamide Dihydrochloride] | > 300 nM | < 300 nM | > 3000 nM | > 3000 nM
Cc1c(-c2cncc(S(=O)(=O)N(C)C)c2)c2cc(OC(F)(F)F)ccc2n1C/C(F)=C/CN [Compound 85, (Z)-5-(1-(4-amino-2-fluorobut-2-en-1-yl)-2-methyl-5-(trifluoromethoxy)-1H-indol-3-yl)-N,N-dimethyl-pyridine-3-sulfonamide Dihydrochloride] | > 300 nM | < 300 nM | > 3000 nM | > 3000 nM
Cc1c(-c2cncc(S(=O)(=O)N(C)C)c2)c2cc(C(=O)O)ccc2n1C/C(F)=C/CN [Compound 40, (Z)-1-(4-amino-2-fluorobut-2-en-1-yl)-3-(5-(N,N-dimethylsulfamoyl)pyridin-3-yl)-2-methyl-1H-indole-5-carboxylic acid] | > 300 nM | < 300 nM | > 3000 nM | > 3000 nM
Cc1c(-c2cccc(N(C)S(C)(=O)=O)c2)c2cc(C(=O)N(C)C)ccc2n1C/C(F)=C/CN [Compound 39, (Z)-1-(4-amino-2-fluorobut-2-en-1-yl)-N,N,2-trimethyl-3-(3-(N-methylmethylsulfonamido)phenyl)-1H-indole-5-carboxamide] | > 300 nM | < 300 nM | > 3000 nM | > 3000 nM
Cc1c(-c2cccc(S(=O)(=O)N(C)C)c2)c2cc(-c3nn[nH]n3)ccc2n1C/C(F)=C/CN [Compound 29, (Z)-3-(1-(4-amino-2-fluorobut-2-en-l-yl)-2-methyl-5-(2H-tetrazol-5-yl)-1H-indol-3-yl)-N,N-dimethylbenzenesulfonamide, Hydrochloride] | > 300 nM | < 300 nM | > 3000 nM | > 3000 nM
Cc1c(-c2cncc(S(=O)(=O)N(C)C)c2)c2ncc(Cl)cc2n1C/C(F)=C/CN [Compound 72, (Z)-5-(1-(4-amino-2-fluorobut-2-en-1-yl)-6-chloro-2-methyl-1H-pyrrolo[3,2-b]pyridin-3-yl)-N,N-dimethylpyridine-3-sulfonamide] | > 300 nM | < 300 nM | > 3000 nM | > 3000 nM
Cc1c(-c2ccc3c(c2)OCO3)c2cc(S(C)(=O)=O)ccc2n1C/C(F)=C/CN [Compound 92, (Z)-4-(3-(benzo[d][1,3]dioxol-5-yl)-2-methyl-5-(methylsulfonyl)-1H-indol-1-yl)-3-fluorobut-2-en-1-amine] | > 300 nM | < 300 nM | > 3000 nM | > 3000 nM
Cc1c(-c2cccc(S(=O)(=O)N(C)C)c2)c2cc(O)ccc2n1C/C(F)=C/CN [Compound 37, (Z)-3-(1-(4-amino-2-fluorobut-2-en-1-yl)-5-hydroxy-2-methyl-1H-indol-3-yl)-N,N-dimethylbenzenesulfonamide] | > 300 nM | < 300 nM | > 3000 nM | > 3000 nM
Cc1ccc2c(n1)c(-c1cccc(S(=O)(=O)N(C)C)c1)c(C)n2C/C(F)=C/CN [Compound 107, (Z)-3-(1-(4-amino-2-fluorobut-2-en-1-yl)-2,5-dimethyl-1H-pyrrolo[3,2-b]pyridin-3-yl)-N,N-dimethylbenzenesulfonamide Dihydrochloride] | > 300 nM | < 300 nM | > 3000 nM | > 3000 nM
CCOC(=O)c1cccc(-c2c(C)n(C/C(F)=C/CN)c3ccc(S(=O)(=O)N(C)C)cc23)c1 [Compound 33, ethyl (Z)-3-(1-(4-amino-2-fluorobut-2-en-1-yl)-5-(N,N-dimethylsulfamoyl)-2-methyl-1H-indol-3-yl)benzoate] | > 300 nM | < 300 nM | > 3000 nM | > 3000 nM
